# According to patent US9975888B2, “Aryl linked imidazole and triazole derivatives and methods of use thereof for improving the pharmacokinetics of a drug” (MERCK SHARP & DOHME CORP., priority 2013, dated 2018):
# How the values were obtained:
# Type in all cases: biochemical
# CYP3A4 [1] = molecular target: T1, CYP3A4 (Homo sapiens, UniProt P08684); assay: Cocktail assay for CYPs, midazolam 1′-hydroxylation (CYP3A4), human liver microsomes; set-up: 0.1 mg/mL protein human liver microsomes (BD Gentest); tissue BD Gentest; host or cells: human liver microsomes; conditions: 2 μM midazolam, 0.1 mg/mL human liver microsomes, 10 min at 37° C.; read-out: CYP IC50 (nM) 3A4 (MDZ)
# Method: (§1) Determination of IC50 in a Cocktail Assay for CYPs 1A2, 2C9, 2C19, 2D6 and 3A4:
# (§2) This assay was performed in a standard 96-well plate design. IC50 values were calculated from the percent inhibition observed for each test compound at 6 concentrations (for example, 0.0032, 0.016, 0.08, 0.4, 2 and 10 μM). The incubation substrate mix contains 10 μM phenacetin (1A2), 5 μM diclofenac (2C9), 30 μM mephenytoin (2C19), 5 μM dextromethorphan (2D6) and 2 μM midazolam (3A4), 0.1 mg/mL protein human liver microsomes (BD Gentest), 1 mM NAPDH, 3.3 mM MgCl2 and 100 mM potassium phosphate buffer (pH 7.4). The production of the metabolite of each probe substrate was determined after incubation for 10 min at 37° C. Quantitation of the metabolite peak area ratio against an internal standard (tolbutamide) was determined by LC/MS/MS analysis following acetonitrile treatment of the incubations.
# (§3) Samples were analyzed in the MRM mode with a SCIEX API-4000 mass spectrometer (Applied Biosystems, Foster City, Calif.), with a Shimadzu LC-20 AD pump (Shimadzu corporation, Kyoto, JP) and a CTC PAL autosampler (Agilent Technologies, Switzerland). A Phenomenex, Luna, 5 nm, 100 A, 2.00×30 mm HPLC column was used for the separation. The mobile phases were: (A) 0.1% formic acid in water and (B) 0.1% formic acid in acetonitrile. The binary gradient was as follows.
# (§4) The peak area ratio of the analyte to the internal standard was used to quantify the metabolite. The values of peak area ratios in the presence of test compound were compared to those of maximum or minimum controls and were expressed as % inhibition by interpolating between the maximum and minimum peak area ratios. Incubations with no inhibitor were defined as the maxima. The following equation was used to calculate the % inhibition: [1−[(X−Low control)/(High control−Low control)]]*100 For the IC50 calculation, SigmaPlot was used to plot the mean % inhibition versus the test compound concentrations and for non-linear regression analysis of the data. Depending on the range of data points defining the inhibition curve, the data may have been fit to the 4-parameter logistic equation.
# Target sequence in this assay (P08684 whole entry): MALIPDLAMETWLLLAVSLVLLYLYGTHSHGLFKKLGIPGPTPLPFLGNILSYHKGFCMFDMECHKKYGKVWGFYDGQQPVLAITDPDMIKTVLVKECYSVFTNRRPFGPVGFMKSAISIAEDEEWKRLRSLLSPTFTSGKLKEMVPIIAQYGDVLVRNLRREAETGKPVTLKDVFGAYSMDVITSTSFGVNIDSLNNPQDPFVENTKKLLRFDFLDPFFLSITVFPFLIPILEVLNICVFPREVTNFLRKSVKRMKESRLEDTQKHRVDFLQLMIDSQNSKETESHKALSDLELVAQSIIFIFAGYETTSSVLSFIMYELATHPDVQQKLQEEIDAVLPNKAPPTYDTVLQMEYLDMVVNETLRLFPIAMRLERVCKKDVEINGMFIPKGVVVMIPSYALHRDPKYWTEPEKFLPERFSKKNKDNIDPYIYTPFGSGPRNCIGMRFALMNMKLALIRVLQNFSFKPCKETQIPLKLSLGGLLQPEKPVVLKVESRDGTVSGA
# CYP2C19 = molecular target: T2, CYP2C19 (Homo sapiens, UniProt P33261); assay: Cocktail assay for CYPs, mephenytoin 4′-hydroxylation (CYP2C19), human liver microsomes; conditions: 30 μM mephenytoin, 0.1 mg/mL human liver microsomes, 10 min at 37° C.; read-out: CYP IC50 (nM) 2C19
# T2 construct: 0.1 mg/mL protein human liver microsomes (BD Gentest); tissue BD Gentest; host or cells: human liver microsomes
# Method: as §1
# as §2, with “IC50 values were calculated from the percent inhibition observed for each test compound at 6 concentrations (for example, 0.0032, 0.016, 0.08, 0.4, 2 and 10 μM).” left out
# as §3, §4
# CYP1A2 = molecular target: T3, CYP1A2 (Homo sapiens, UniProt P05177); assay: Cocktail assay for CYPs, phenacetin O-deethylation (CYP1A2), human liver microsomes; conditions: 10 μM phenacetin, 0.1 mg/mL human liver microsomes, 10 min at 37° C.; read-out: CYP IC50 (nM) 1A2
# T3 construct: 0.1 mg/mL protein human liver microsomes (BD Gentest); tissue BD Gentest; host or cells: human liver microsomes
# T3 sequence (P05177 1-516): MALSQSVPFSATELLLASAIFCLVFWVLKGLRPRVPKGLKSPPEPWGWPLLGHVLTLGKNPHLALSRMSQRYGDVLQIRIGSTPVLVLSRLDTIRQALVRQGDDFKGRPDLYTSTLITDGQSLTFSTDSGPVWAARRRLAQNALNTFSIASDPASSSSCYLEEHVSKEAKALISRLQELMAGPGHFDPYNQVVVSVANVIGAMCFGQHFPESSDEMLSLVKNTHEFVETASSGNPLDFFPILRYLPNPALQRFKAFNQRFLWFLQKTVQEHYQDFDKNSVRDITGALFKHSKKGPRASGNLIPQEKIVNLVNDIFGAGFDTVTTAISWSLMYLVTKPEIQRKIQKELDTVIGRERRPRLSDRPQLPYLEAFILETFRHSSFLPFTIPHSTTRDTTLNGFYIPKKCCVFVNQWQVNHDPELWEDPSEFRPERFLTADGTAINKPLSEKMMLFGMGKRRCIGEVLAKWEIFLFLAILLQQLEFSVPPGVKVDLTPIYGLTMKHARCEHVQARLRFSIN
# Method: as §1, §2, §3, §4
# CYP2D6 = molecular target: T4, CYP2D6 (Homo sapiens, UniProt P10635); assay: Cocktail assay for CYPs, dextromethorphan O-demethylation (CYP2D6), human liver microsomes; conditions: 5 μM dextromethorphan, 0.1 mg/mL human liver microsomes, 10 min at 37° C.; read-out: CYP IC50 (nM) 2D6
# T4 construct: 0.1 mg/mL protein human liver microsomes (BD Gentest); tissue BD Gentest; host or cells: human liver microsomes
# Method: as §1, §2, §3, §4
# CYP3A4 [2] = molecular target: T1, CYP3A4; assay: IC50 vs CYP3A by inhibition of lopinavir metabolism in human liver microsomes; set-up: 0.01 mg/mL protein human liver microsomes (BD Gentest); tissue BD Gentest; host or cells: human liver microsomes; conditions: 1.5 μM lopinavir, 0.01 mg/mL human liver microsomes, 8 min at 37° C.; read-out: CYP IC50 (nM) 3A4 (LPV)
# Method: Determination of IC50 vs CYP3A by Measurement of Inhibition of Lopinavir Metabolism
# This assay was performed in a standard 96-well plate design. IC50 values were calculated from the percent inhibition observed for each test compound at 6 concentrations (for example, 0.098, 0.391, 1.56, 6.25, 25 and 100 nM). The incubation substrate mix contains 1.5 μM lopinavir, 0.01 mg/mL protein human liver microsomes (BD Gentest), 1 mM NAPDH, 3.3 mM MgCl2 and 100 mM potassium phosphate buffer (pH 7.4). The production of the sum of three hydroxylated metabolites (M2: 6-hydroxy lopinavir, M3: 4-hydroxy lopinavir, M4: 4-hydroxy lopinavir (epimer of M3), Kumar et al., 1999) was determined after incubation for 8 min at 37° C. Quantitation of the metabolite peak area ratio against an internal standard (tolbutamide) was determined by LC/MS/MS analysis following acetonitrile treatment of the incubations.
# as §3, with “μm,” for “nm,”
# Target sequence in this assay (P08684 2-503): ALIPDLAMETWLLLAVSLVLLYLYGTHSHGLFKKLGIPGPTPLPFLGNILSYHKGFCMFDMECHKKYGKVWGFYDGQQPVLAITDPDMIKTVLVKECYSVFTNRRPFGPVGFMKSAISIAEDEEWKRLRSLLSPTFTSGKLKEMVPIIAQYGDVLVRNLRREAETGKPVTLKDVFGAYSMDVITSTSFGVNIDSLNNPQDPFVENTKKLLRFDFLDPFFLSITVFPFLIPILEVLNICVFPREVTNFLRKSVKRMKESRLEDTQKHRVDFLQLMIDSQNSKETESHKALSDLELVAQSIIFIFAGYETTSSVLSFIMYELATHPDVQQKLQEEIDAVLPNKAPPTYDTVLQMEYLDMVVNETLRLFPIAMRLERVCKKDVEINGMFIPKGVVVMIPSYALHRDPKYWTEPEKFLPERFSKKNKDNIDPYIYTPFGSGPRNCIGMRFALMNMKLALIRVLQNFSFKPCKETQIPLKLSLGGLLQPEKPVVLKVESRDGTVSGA
# The peak area ratio of the analyte to the internal standard was used to quantify the metabolite. The values of peak area ratios in the presence of test compound were compared to those of maximum or minimum controls and were expressed as % inhibition by interpolating between the maximum and minimum peak area ratios. Incubations with no inhibitor were defined as the maxima and with 5 μM ketoconazole were defined as the minima.
# The following equation was used to calculate the % inhibition: [1−[(X−Low control)/(High control−Low control)]]*100
# For the IC50 calculation, SigmaPlot was used to plot the mean % inhibition versus the test compound concentrations and for non-linear regression analysis of the data. Depending on the range of data points defining the inhibition curve, the data may have been fit to the 4-parameter logistic equation.
# CYP2C9 = molecular target: T5, CYP2C9 (Homo sapiens, UniProt P11712); assay: Cocktail assay for CYPs, diclofenac 4′-hydroxylation (CYP2C9), human liver microsomes; conditions: 5 μM diclofenac, 0.1 mg/mL human liver microsomes, 10 min at 37° C.; read-out: CYP IC50 (nM) 2C9
# T5 construct: 0.1 mg/mL protein human liver microsomes (BD Gentest); tissue BD Gentest; host or cells: human liver microsomes
# Method: as §1
# as §2, with “IC50 values were calculated from the percent inhibition observed for each test compound at 6 concentrations (for example, 0.0032, 0.016, 0.08, 0.4, 2 and 10 μM).” left out
# as §3, §4
# T2 sequence (P33261 whole entry): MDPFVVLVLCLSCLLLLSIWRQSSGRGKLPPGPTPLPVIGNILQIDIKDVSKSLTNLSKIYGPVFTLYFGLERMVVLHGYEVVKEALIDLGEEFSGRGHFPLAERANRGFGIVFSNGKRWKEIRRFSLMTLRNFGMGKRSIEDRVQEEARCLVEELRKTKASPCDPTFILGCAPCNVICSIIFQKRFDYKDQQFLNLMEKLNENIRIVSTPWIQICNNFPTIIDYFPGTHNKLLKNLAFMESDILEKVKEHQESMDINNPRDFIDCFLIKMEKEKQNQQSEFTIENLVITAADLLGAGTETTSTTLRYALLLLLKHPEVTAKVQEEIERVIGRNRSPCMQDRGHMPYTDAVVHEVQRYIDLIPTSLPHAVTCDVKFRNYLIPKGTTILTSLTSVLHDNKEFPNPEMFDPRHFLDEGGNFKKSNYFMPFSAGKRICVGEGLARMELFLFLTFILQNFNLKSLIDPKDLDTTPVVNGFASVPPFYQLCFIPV
# T4 sequence (P10635 whole entry): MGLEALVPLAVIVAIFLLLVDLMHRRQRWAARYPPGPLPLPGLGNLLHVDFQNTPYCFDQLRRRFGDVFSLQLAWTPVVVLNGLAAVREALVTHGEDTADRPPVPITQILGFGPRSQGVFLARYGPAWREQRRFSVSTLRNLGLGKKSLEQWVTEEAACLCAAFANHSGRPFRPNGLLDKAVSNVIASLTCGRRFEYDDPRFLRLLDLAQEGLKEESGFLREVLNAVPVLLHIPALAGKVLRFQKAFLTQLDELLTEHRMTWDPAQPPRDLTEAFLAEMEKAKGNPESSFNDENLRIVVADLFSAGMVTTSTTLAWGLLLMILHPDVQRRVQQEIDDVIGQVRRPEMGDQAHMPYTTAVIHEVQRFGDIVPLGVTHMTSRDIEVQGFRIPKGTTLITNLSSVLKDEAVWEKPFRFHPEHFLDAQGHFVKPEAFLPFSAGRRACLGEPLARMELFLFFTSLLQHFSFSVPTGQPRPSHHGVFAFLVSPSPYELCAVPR
# T5 sequence (P11712 whole entry): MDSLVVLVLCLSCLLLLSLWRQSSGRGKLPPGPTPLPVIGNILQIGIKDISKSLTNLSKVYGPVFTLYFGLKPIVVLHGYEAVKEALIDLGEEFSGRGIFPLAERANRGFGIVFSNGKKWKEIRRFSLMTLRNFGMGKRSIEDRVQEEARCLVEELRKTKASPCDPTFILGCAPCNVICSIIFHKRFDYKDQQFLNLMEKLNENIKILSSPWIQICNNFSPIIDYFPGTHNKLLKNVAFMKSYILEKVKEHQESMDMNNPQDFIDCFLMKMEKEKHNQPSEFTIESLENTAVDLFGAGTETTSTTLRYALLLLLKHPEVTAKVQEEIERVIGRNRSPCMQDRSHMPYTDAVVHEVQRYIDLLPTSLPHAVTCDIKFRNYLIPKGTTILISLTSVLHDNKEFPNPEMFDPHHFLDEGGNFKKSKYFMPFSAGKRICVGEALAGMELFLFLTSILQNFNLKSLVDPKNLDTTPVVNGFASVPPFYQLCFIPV
IC50 (CYP3A4 [1]),IC50 (CYP2C19),IC50 (CYP1A2),IC50 (CYP2D6),IC50 (CYP3A4 [2]),IC50 (CYP2C9),Structure (SMILES)
30.1 nM,3830 nM,> 10000 nM,4700 nM,29.6 nM,9740 nM,"O=C(C1CCOCC1)N1CCCC1c1cccc(-c2cncn2CCc2ccc(F)cc2)c1 (single isomer, unassigned) [Compound 49a, (R or S)-(2-(3-(1-(4-fluorophenethyl)-1H-imidazol-5-yl)phenyl)pyrrolidin-1-yl)(tetrahydro-2H-pyran-4-yl)methanone]"
58.6 nM,6910 nM,> 10000 nM,> 10000 nM,> 100 nM,> 10000 nM,"O=C(C1CCOCC1)N1CCCC1c1cccc(-c2cncn2CCc2ccc(F)cc2)c1 (single isomer, unassigned) [Compound 49b, (R or S)-(2-(3-(1-(4-fluorophenethyl)-1H-imidazol-5-yl)phenyl)pyrrolidin-1-yl)(tetrahydro-2H-pyran-4-yl)methanone]"
8.65 nM,78.6 nM,1080 nM,1370 nM,2 nM,165 nM,"COc1ccc(OC)c(S(=O)(=O)N2CCCC2c2cccc(-c3cncn3CCc3ccc(F)cc3)c2)c1 (single isomer, unassigned) [Compound 53a, (R or S)-5-(3-(1-((2,5-dimethoxyphenyl)sulfonyl)pyrrolidin-2-yl)phenyl)-1-(4-fluorophenethyl)-1H-imidazole]"
5.47 nM,149 nM,1470 nM,2330 nM,2.1 nM,216 nM,"COc1ccc(OC)c(S(=O)(=O)N2CCCC2c2cccc(-c3cncn3CCc3ccc(F)cc3)c2)c1 (single isomer, unassigned) [Compound 53b, (R or S)-5-(3-(1-((2,5-Dimethoxy-phenyl)sulfonyl)pyrrolidin-2-yl)phenyl)-1-(4-fluorophenethyl)-1H-imidazole]"

# Further lines, the molecule ahead of its results:
Structure (SMILES),IC50 (CYP3A4 [1]),IC50 (CYP2C19),IC50 (CYP1A2),IC50 (CYP2D6),IC50 (CYP3A4 [2]),IC50 (CYP2C9)
"O=C(C1CC1)N1CCCC1c1ccccc1-c1cncn1CCc1ccc(F)cc1 (single isomer, unassigned) [Compound 44a, (R or S)-cyclopropyl(2-(2-(1-(4-fluorophenethyl)-1H-imidazol-5-yl)phenyl)pyrrolidin-1-yl)methanone]",46.6 nM,6520 nM,> 10000 nM,> 10000 nM,20.1 nM,> 10000 nM
"O=C(C1CC1)N1CCCC1c1ccccc1-c1cncn1CCc1ccc(F)cc1 (single isomer, unassigned) [Compound 44b, (R or S)-cyclopropyl(2-(2-(1-(4-fluorophenethyl)-1H-imidazol-5-yl)phenyl)pyrrolidin-1-yl)methanone]",6.7 nM,7130 nM,> 10000 nM,> 10000 nM,6.4 nM,5900 nM
"CC(C)NC(=O)N1CCCC1c1ccccc1-c1cncn1CCc1ccc(F)cc1 (single isomer, unassigned) [Compound 46a, (R or S)-2-(2-(1-(4-fluorophenethyl)-1H-imidazol-5-yl)phenyl)-N-isopropyl-pyrrolidine-1-carboxamide]",58.5 nM,> 10000 nM,> 10000 nM,> 10000 nM,45.3 nM,> 10000 nM
"CC(C)NC(=O)N1CCCC1c1ccccc1-c1cncn1CCc1ccc(F)cc1 (single isomer, unassigned) [Compound 46b, (R or S)-2-(2-(1-(4-fluorophenethyl)-1H-imidazol-5-yl)phenyl)-N-isopropyl-pyrrolidine-1-carboxamide]",6.1 nM,> 10000 nM,> 10000 nM,> 10000 nM,6.2 nM,> 10000 nM
"O=C(c1cccnc1)N1CCCC1c1cccc(-c2cncn2CCc2ccc(F)cc2)c1 (single isomer, unassigned) [Compound 48a, (R or S)-(2-(3-(1-(4-fluorophenethyl)-1H-imidazol-5-yl)phenyl)pyrrolidin-1-yl) (pyridin-3-yl) methanone]",24.2 nM,5430 nM,9300 nM,6800 nM,32.3 nM,> 10000 nM
"O=C(c1cccnc1)N1CCCC1c1cccc(-c2cncn2CCc2ccc(F)cc2)c1 (single isomer, unassigned) [Compound 48b, (R or S)-(2-(3-(1-(4-fluorophenethyl)-1H-imidazol-5-yl)phenyl)pyrrolidin-1-yl) (pyridin-3-yl) methanone]",41.2 nM,4800 nM,> 10000 nM,3880 nM,> 100 nM,9840 nM
